Where “and” joins values, the source holds several entries; their conditions need not be identical. Equal entries are not always repeated. Each block holds one compound with its values, some of them ahead of it.
Tests used:
wild-type EGFR = wild-type EGFR (Homo sapiens, UniProt P00533); test: EGFR kinase assay (ELISA); conditions: for IC50: IC50 (μM) EGFR, ELISA, 3 μmol/L ATP; for A450: raw ELISA absorbance
H460 cells = test: CCK-8 antiproliferation assay, H460; conditions: for Inhibitory efficacy: H460 cells; for IC50: NCI-H460, 48 h, read-out: IC50 (μM) H460, CCK-8, 48 h, average ± SD of three independent experiments
Description: (§1) The compounds were dissolved in DMSO to make a 20 μM stock solution and diluted to the concentration of working solutions with complete growth medium before administration.
(§2) Cells were seeded in 96-well plates: 3,000–5,000 cells/well in 100 ul. One day after seeding, the test compounds at concentration between 1.0 and 16.0 μ M or 0.1% DMSO (as control) were added to cells in triplicate. 48 h later, CCK-8 was added and incubated the plate for 1–4 h in the incubator. The absorbance at 450 nm were measured using a microplate reader (Bio-Tek).

PC-9 cells = test: CCK-8 antiproliferation assay, PC-9; conditions: for IC50: PC-9, 48 h, read-out: IC50 (μM) PC-9; for Inhibitory efficacy: single repeats (Repeat 1-3), given as fraction
Description: as §1, §2

H1975 cells = test: CCK-8 antiproliferation assay, H1975; conditions: for Inhibitory efficacy: H1975 cells; for IC50: NCI-H1975, 48 h, read-out: IC50 (μM) H1975, CCK-8, 48 h, average ± SD of three independent experiments
A549 cells = test: CCK-8 antiproliferation assay, A549; conditions: for Inhibitory efficacy: A549 cells; for IC50: A549, 48 h, read-out: IC50 (μM) A549, CCK-8, 48 h, average ± SD of three independent experiments
[1] = concentration 0.03 nM, one value per replicate column
[2] = concentration 0.03 nM, one value per replicate column, 3e-05 µM
[3] = concentration 0.3 nM, one value per replicate column
[4] = concentration 0.3 nM, one value per replicate column, 0.0003 µM
[5] = concentration 3 nM, one value per replicate column
[6] = concentration 3 nM, one value per replicate column, 0.003 µM
[7] = concentration 30 nM, one value per replicate column
[8] = concentration 30 nM, one value per replicate column, 0.03 µM
[9] = concentration 300 nM, one value per replicate column
[10] = concentration 300 nM, one value per replicate column, 0.3 µM
[11] = concentration 3000 nM, one value per replicate column
[12] = concentration 3000 nM, one value per replicate column, 3 µM
[13] = concentration 30000 nM, one value per replicate column
[14] = concentration 30000 nM, one value per replicate column, 30 µM
[15] = 2uM, given as fraction, Repeat 1-3
[16] = 8uM, given as fraction, Repeat 1-3
[17] = 16uM, given as fraction, Repeat 1-3
[18] = Homo sapiens, NCI-H460, read-out: Inhibitory efficacy, H460 cells, 2uM, given as fraction, Repeat 1-3
[19] = Homo sapiens, NCI-H460, read-out: Inhibitory efficacy, H460 cells, 8uM, given as fraction, Repeat 1-3
[20] = Homo sapiens, NCI-H460, read-out: Inhibitory efficacy, H460 cells, 16uM, given as fraction, Repeat 1-3
[21] = 1uM, given as fraction, Repeat 1-3
[22] = 4uM, given as fraction, Repeat 1-3
[23] = Homo sapiens, NCI-H1975, read-out: Inhibitory efficacy, H1975 cells, 2uM, given as fraction, Repeat 1-3
[24] = Homo sapiens, NCI-H1975, read-out: Inhibitory efficacy, H1975 cells, 4uM, given as fraction, Repeat 1-3
[25] = Homo sapiens, NCI-H1975, read-out: Inhibitory efficacy, H1975 cells, 8uM, given as fraction, Repeat 1-3
[26] = Homo sapiens, NCI-H1975, read-out: Inhibitory efficacy, H1975 cells, 16uM, given as fraction, Repeat 1-3
[27] = Homo sapiens, A549, read-out: Inhibitory efficacy, A549 cells, 4uM, given as fraction, Repeat 1-3
[28] = Homo sapiens, A549, read-out: Inhibitory efficacy, A549 cells, 16uM, given as fraction, Repeat 1-3

wild-type EGFR, sequence (P00533 25-1210): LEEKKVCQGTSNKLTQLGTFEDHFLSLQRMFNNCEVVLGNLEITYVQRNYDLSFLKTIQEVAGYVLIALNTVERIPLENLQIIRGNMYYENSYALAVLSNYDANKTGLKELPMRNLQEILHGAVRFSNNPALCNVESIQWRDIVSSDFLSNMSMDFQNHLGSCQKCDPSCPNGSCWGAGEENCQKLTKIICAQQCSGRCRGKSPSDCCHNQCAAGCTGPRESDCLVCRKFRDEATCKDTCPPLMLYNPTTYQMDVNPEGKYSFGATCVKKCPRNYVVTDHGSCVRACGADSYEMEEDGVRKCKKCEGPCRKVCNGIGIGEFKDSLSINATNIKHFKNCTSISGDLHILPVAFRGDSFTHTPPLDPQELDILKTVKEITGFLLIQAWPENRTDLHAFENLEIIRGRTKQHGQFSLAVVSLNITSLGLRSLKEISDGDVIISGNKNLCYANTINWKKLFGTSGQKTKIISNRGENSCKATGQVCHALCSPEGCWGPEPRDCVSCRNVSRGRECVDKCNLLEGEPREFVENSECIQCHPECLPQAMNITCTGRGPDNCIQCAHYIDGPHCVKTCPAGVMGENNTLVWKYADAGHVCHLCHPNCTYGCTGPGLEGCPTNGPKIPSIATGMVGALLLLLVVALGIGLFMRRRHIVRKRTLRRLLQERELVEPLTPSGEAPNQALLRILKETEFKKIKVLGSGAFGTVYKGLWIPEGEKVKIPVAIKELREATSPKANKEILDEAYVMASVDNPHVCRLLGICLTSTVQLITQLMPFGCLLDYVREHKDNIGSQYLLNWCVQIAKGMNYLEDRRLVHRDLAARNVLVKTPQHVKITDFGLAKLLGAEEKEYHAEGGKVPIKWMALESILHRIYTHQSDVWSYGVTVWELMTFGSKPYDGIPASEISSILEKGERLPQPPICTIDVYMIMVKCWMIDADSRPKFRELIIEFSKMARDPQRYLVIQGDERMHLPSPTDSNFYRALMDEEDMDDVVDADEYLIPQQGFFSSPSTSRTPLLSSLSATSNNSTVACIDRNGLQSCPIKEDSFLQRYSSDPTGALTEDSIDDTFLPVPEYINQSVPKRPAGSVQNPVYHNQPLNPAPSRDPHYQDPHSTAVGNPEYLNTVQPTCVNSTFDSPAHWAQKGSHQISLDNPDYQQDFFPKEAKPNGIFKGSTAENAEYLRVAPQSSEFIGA

IC50 (wild-type EGFR): 10.7 µM
inhibition at 30 pM (wild-type EGFR; [1]): 3.1%
Inhibition (wild-type EGFR; [2]): 4.587
inhibition at 0.0003 µM (wild-type EGFR; [3]): 5.16%
Inhibition (wild-type EGFR; [4]): 5.242
inhibition at 0.003 µM (wild-type EGFR; [5]): 5.55%
Inhibition (wild-type EGFR; [6]): 6.684
inhibition at 0.03 µM (wild-type EGFR; [7]): 10.7%
Inhibition (wild-type EGFR; [8]): 8.781
inhibition at 0.3 µM (wild-type EGFR; [9]): 11.4%
Inhibition (wild-type EGFR; [10]): 9.699
inhibition at 3 µM (wild-type EGFR; [11]): 22.2%
Inhibition (wild-type EGFR; [12]): 18.3486
inhibition at 30 µM (wild-type EGFR; [13]): 74.1%
Inhibition (wild-type EGFR; [14]): 73.6566
A450 (wild-type EGFR; concentration 0.0001 nM): 1.058 and 1.062
A450 (wild-type EGFR; concentration 0.03 nM): 1.034 and 1.027
A450 (wild-type EGFR; concentration 0.3 nM): 1.018 and 1.022
A450 (wild-type EGFR; concentration 3 nM): 1.015 and 1.011
A450 (wild-type EGFR; concentration 30 nM): 0.975 and 0.995
A450 (wild-type EGFR; concentration 300 nM): 0.97 and 0.988
A450 (wild-type EGFR; concentration 3000 nM): 0.886 and 0.922
A450 (wild-type EGFR; concentration 30000 nM): 0.484 and 0.5
IC50 (H460 cells; Homo sapiens): 34.1 ± 2.5 µM
IC50 (PC-9 cells; Homo sapiens): > 100 µM
melting point: 110 to 114 °C
IC50 (H1975 cells; Homo sapiens): 7.5 ± 0.49 µM
IC50 (A549 cells; Homo sapiens): > 100 µM
Structure (SMILES): CCOc1cccc(-n2cc(-c3cccc(Nc4ncnc5cc(OCCOC)c(OCCOC)cc45)c3)nn2)c1 [e14, [6,7-Bis-(2-methoxy-ethoxy)-quinazolin-4-yl]-{3-[1-(3-ethoxy-phenyl)-1H-[1,2,3]triazol-4-yl]-phenyl}-amine]
Inhibitory efficacy (H460 cells; [15]): 0.09418 and 0.1351
Inhibitory efficacy (H460 cells; [16]): 0.192 and 0.3038
Inhibitory efficacy (H460 cells; [17]): 0.3527 and 0.3328
inhibition at 2 µM (H460 cells; [18]): 8.02%
inhibition at 8 µM (H460 cells; [19]): 25.9%
inhibition at 16 µM (H460 cells; [20]): 30.4%
Inhibitory efficacy (H1975 cells; [21]): 0.1721 and 0.1925
Inhibitory efficacy (H1975 cells; [15]): 0.2391 and 0.2224
Inhibitory efficacy (H1975 cells; [22]): 0.4814 and 0.4311
Inhibitory efficacy (H1975 cells; [16]): 0.5466 and 0.5764
Inhibitory efficacy (H1975 cells; [17]): 0.5969 and 0.5615
inhibition at 1 µM (H1975 cells; Homo sapiens, NCI-H1975, read-out: Inhibitory efficacy, H1975 cells, 1uM, given as fraction, Repeat 1-3): 20.6%
inhibition at 2 µM (H1975 cells; [23]): 28.4%
inhibition at 4 µM (H1975 cells; [24]): 34%
inhibition at 8 µM (H1975 cells; [25]): 58.6%
inhibition at 16 µM (H1975 cells; [26]): 57.3%
Inhibitory efficacy (A549 cells; [21]): 0.06697 and 0.1106
Inhibitory efficacy (A549 cells; [22]): 0.2585 and 0.1473
Inhibitory efficacy (A549 cells; [17]): 0.1909 and 0.2764
inhibition at 1 µM (A549 cells; Homo sapiens, A549, read-out: Inhibitory efficacy, A549 cells, 1uM, given as fraction, Repeat 1-3): 8.24%
inhibition at 4 µM (A549 cells; [27]): 25.4%
inhibition at 16 µM (A549 cells; [28]): 26.4%

IC50 (wild-type EGFR): 49.4 µM
inhibition at 100 fM (wild-type EGFR; concentration 0.0001 nM (reference for normalisation), one value per replicate column): 0%
inhibition at 30 pM (wild-type EGFR; [1]): 4.93%
Inhibition (wild-type EGFR; [2]): 3.3195
inhibition at 0.0003 µM (wild-type EGFR; [3]): 5.78%
Inhibition (wild-type EGFR; [4]): 3.734
inhibition at 0.003 µM (wild-type EGFR; [5]): 6.42%
Inhibition (wild-type EGFR; [6]): 4.357
inhibition at 0.03 µM (wild-type EGFR; [7]): 7.71%
Inhibition (wild-type EGFR; [8]): 6.432
inhibition at 0.3 µM (wild-type EGFR; [9]): 13.1%
Inhibition (wild-type EGFR; [10]): 8.091
inhibition at 3 µM (wild-type EGFR; [11]): 13.3%
Inhibition (wild-type EGFR; [12]): 12.4481
inhibition at 30 µM (wild-type EGFR; [13]): 46.9%
Inhibition (wild-type EGFR; [14]): 45.2282
A450 (wild-type EGFR; concentration 0.0001 nM): 0.614 and 0.641
A450 (wild-type EGFR; concentration 0.03 nM): 0.591 and 0.625
A450 (wild-type EGFR; concentration 0.3 nM): 0.587 and 0.623
A450 (wild-type EGFR; concentration 3 nM): 0.584 and 0.62
A450 (wild-type EGFR; concentration 30 nM): 0.578 and 0.61
A450 (wild-type EGFR; concentration 300 nM): 0.553 and 0.602
A450 (wild-type EGFR; concentration 3000 nM): 0.552 and 0.581
A450 (wild-type EGFR; concentration 30000 nM): 0.395 and 0.423
IC50 (H460 cells; Homo sapiens): 4.89 ± 0.23 µM
IC50 (PC-9 cells; Homo sapiens): 16 ± 1.04 µM
melting point: 87 to 90 °C
IC50 (H1975 cells; Homo sapiens): 10.8 ± 1.57 µM
IC50 (A549 cells; Homo sapiens): 8.4 ± 0.29 µM
Structure (SMILES): COCCOc1cc2ncnc(Nc3cccc(-c4cn(-c5ccccc5OC)nn4)c3)c2cc1OCCOC [e11, [6,7-Bis-(2-methoxy-ethoxy)-quinazolin-4-yl]-{3-[1-(2-methoxy-phenyl)-1H-[1,2,3]triazol-4-yl]-phenyl}-amine]
Inhibitory efficacy (H460 cells; [15]): 0.2801 and 0.2884
Inhibitory efficacy (H460 cells; [22]): 0.5058 and 0.5573
Inhibitory efficacy (H460 cells; [16]): 0.6543 and 0.6301
Inhibitory efficacy (H460 cells; [17]): 0.6649 and 0.6664
inhibition at 2 µM (H460 cells; [18]): 34.4%
inhibition at 4 µM (H460 cells; Homo sapiens, NCI-H460, read-out: Inhibitory efficacy, H460 cells, 4uM, given as fraction, Repeat 1-3): 48.9%
inhibition at 8 µM (H460 cells; [19]): 64.7%
inhibition at 16 µM (H460 cells; [20]): 69.5%
inhibition at 8 µM (PC-9 cells; Homo sapiens, PC-9, read-out: Inhibitory efficacy, PC-9, 8uM, single repeats (Repeat 1-3), given as fraction): 27.4%
inhibition at 16 µM (PC-9 cells; Homo sapiens, PC-9, read-out: Inhibitory efficacy, PC-9, 16uM, single repeats (Repeat 1-3), given as fraction): 46.7%
Inhibitory efficacy (PC-9 cells; PC-9, 8uM, 8 µM): 0.2959 and 0.2658
Inhibitory efficacy (PC-9 cells; PC-9, 16uM, 16 µM): 0.4848 and 0.4258
Inhibitory efficacy (H1975 cells; [15]): 0.257 and 0.2168
Inhibitory efficacy (H1975 cells; [22]): 0.213 and 0.192
Inhibitory efficacy (H1975 cells; [16]): 0.4311 and 0.3814
Inhibitory efficacy (H1975 cells; [17]): 0.6071 and 0.5938
inhibition at 2 µM (H1975 cells; [23]): 29.1%
inhibition at 4 µM (H1975 cells; [24]): 32.2%
inhibition at 8 µM (H1975 cells; [25]): 49.2%
inhibition at 16 µM (H1975 cells; [26]): 59.9%
Inhibitory efficacy (A549 cells; [15]): 0.1633 and 0.2142
Inhibitory efficacy (A549 cells; [22]): 0.2462 and 0.3291
Inhibitory efficacy (A549 cells; [16]): 0.4514 and 0.4662
Inhibitory efficacy (A549 cells; [17]): 0.7059 and 0.6624
inhibition at 2 µM (A549 cells; Homo sapiens, A549, read-out: Inhibitory efficacy, A549 cells, 2uM, given as fraction, Repeat 1-3): 20.1%
inhibition at 4 µM (A549 cells; [27]): 25%
inhibition at 8 µM (A549 cells; Homo sapiens, A549, read-out: Inhibitory efficacy, A549 cells, 8uM, given as fraction, Repeat 1-3): 52.7%
inhibition at 16 µM (A549 cells; [28]): 68.7%
